What was measured:
HCT-116 cells [1] = test: Calcein AM viability assay, HCT-116; format: cell-based; settings: Homo sapiens
Experimental: (§1) The potency of the subject kinase inhibitors, as measured by loss of cellular viability, was determined with the Calcein AM assay (Molecular Probes). Calcein AM is a substrate of intracellular esterases, which is cleaved only in viable cells to generate a fluorescent product that can be quantified with a fluorescent plate reader. The fluorescent signal is proportional to the number of viable cells, and thus loss of signal in response to the exposure of cells to the subject kinase inhibitors correlates with a loss of viability. This assay not only distinguishes cell cycle arrest, in which cells may still by viable, from loss of viability, and is thus well suited for the evaluation of the subject kinase inhibitors. A compound that is a potent cytotoxic agent may cause significant loss of cell viability in such an assay.
(§2) Cellular IC50's were determined in the human colorectal carcinoma cell line, HCT-116, and the normal human fibroblast, IMR90. Protein adjusted IC50's were also determined in HCT-116. Results of such viability assays are presented in Table 2 (HCT-116 (viability/protein adjusted) and IMR-90). IC50's (μM, non-protein adjusted) for the viability assay against HCT-116 cells are shown for further compounds of the invention in Table 4.
(§3) HCT-116 or IMR90 cells were recovered from sub-confluent plates by trypsinization and 1,000 or 4,000 cells, respectively, were plated in 24-well dishes and incubated overnight at 37° C., 5% CO2. HCT-116 cells were cultured in RPMI-1640, 10% FCS, and IMR90 cells were cultured in Minimum Essential Medium-alpha, 10% FCS. After overnight incubation to allow adherence, the media was aspirated from each well and replaced with media containing a test compound at a concentration from 0 to 250 nM, spanning a total of 7 doses. The plates were returned to the incubator and cultured for an additional 72 hours (3 days). […] After 72-hours incubation with the test compound, the cells were washed twice with 1×PBS, taking special care to remove all residual buffer.
(§4) A 5 μM Calcein AM solution was prepared by dissolving a 50 μg aliquot of Calcein (Molecular Probes catalog #C3100) in 50 μl DMSO. After the Calcein had completely dissolved (10 minutes at room temperature), it was diluted into 10 ml PBS. Calcein/PBS (0.5 ml) was added to each well. The plates were incubated for 75 minutes at 37° C. (protected from light) and the fluorescent signal was read on a fluorescent plate reader (excitation 485/20 and emission 530/25).

[2] = tested on: normal human fibroblast, IMR90; test: Calcein AM viability assay, IMR90; format: cell-based; settings: IMR-90, Calcein AM, 72 h
Experimental: as §1, §2, §3, §4

[3] = tested on: NCI panel of 60 cell lines; test: cells; settings: Homo sapiens, 60 cell, 48 h, read-out: NCI panel MG-MID (Mean-Graph Mid-point, average IC50 over panel), 48 h, SRB; IC50 <10 nM counted as 10 nM
Source text: (§5) The evaluation of compounds at the National Cancer Institute in their panel of 60 cell lines provides a wealth of information regarding efficacy in a wide range of tumor types and genetic backgrounds. Included within this panel are cell lines derived from leukemia, melanoma and cancers of the lung, colon, brain, ovary, breast, prostate and kidney. Use of this panel provides a measure of the efficacy of compounds in cells with alterations in many genes that are associated with neoplastic transformation including p53 and Her2/Neu as well as those involved in metabolism and those which confer multi-drug resistance. The data generated in these cell lines with the protocol described below can be used to evaluate the activity of compounds.
(§6) Cells were grown in RPMI-1640 10% FCS and plated in 96 well micro-titer plates at densities ranging from 5,000 to 40,000 cells/well. The plates were incubated for 24 hours at 37° C., 5% CO2 for 24 hours. Media containing twice the desired final concentration of the compound (5 doses spanning 4 logs) was prepared and 100 μl was added to each well containing 100 μl media plus cells to yield the desired final concentration. The plates were then incubated for an additional 48 hours.
(§7) The effect of the compound on cellular viability was determined with the Sulforhodamine B (SRB) assay, which measures total protein. Cells were fixed with cold TCA to a final concentration of 10% and incubated at 4° C. for 60 minutes. The supernatant was discarded and the plates were washed five times with water and air-dried. SRB solution at […] in 1% acetic acid was added to each well and the plates were incubated for 10 minutes at room temperature. The plates were washed five times with 1% acetic acid and air-dried. The bound stain was solubilized with 10 mM trizma base and the absorbance was read on a plate reader at […].

[4] = tested on: adriamycin resistant cell line (ADR-res); test: NCI panel, adriamycin resistant cell line, SRB assay; format: cell-based; settings: Homo sapiens, 48 h
Source text: as §5, §6, §7

HCT-116 cells [5] = test: Clonogenic survival assay with HCT-116 cells; format: cell-based; settings: Homo sapiens
Experimental: This assay was used to determine the concentration of a compound that results in irreversible loss of viability after a specified period of exposure. Essentially, cells are exposed to compound for a period of […], and are then transferred to compound-free growth medium. After continued incubation in the compound-free medium for a number of days, the number of colonies recovered is counted as an estimate of the number of surviving cells.
Media (RPMI-1640, 10% FCS, pen/strep) was pre-warmed to 37° C. in a water bath. Cells were incubated and grown at 37° C., 5% CO2. Cells were recovered by trypsinization from sub-confluent plates and counted using a hemocytometer. 1×10^4 cells were plated in 25 mls of media in a 15 cm tissue culture dish. […] were set up for each test compound, and were incubated overnight at 37° C. The compound was diluted into media at 7 concentrations and the media on the cells was replaced with that containing the test compound. Two plates were set up for each concentration of the compound to be tested, as well as two control plates without compound. Plates were incubated as above for […], media was removed and replaced with fresh media, and the plates were incubated an additional 7 days and washed with PBS. Colonies were stained with crystal violet solution (0.4% crystal violet, 20% ethanol) for 5 minutes, washed twice with distilled water, and counted.

[6] = HCT-116, non-protein adjusted, Table 4, read-out: HCT-116 viability IC50
[7] = HCT-116, 72 h, Calcein AM, 72 h, read-out: HCT-116 IC50 Viability
[8] = HCT-116, plus 1 mg/ml alpha acidic glycoprotein and 45 mg/ml human serum albumin, read-out: HCT-116 IC50 Protein adjusted
[9] = 24 h exposure, read-out: HCT-116 IC50 Clonogenic 24 h
[10] = 48 h exposure, read-out: HCT-116 IC50 Clonogenic 48 h

## O=C(Nc1cccc2c1C(=O)c1c(-c3ccc(OCC(=O)N4CCN(c5ccccc5)CC4)cc3)n[nH]c1-2)NN1CCOCC1 [Compound A80]
HCT-116 cells [1]; [6]
  IC50: < 100 nM

## O=C(Nc1cccc2c1C(=O)c1c(-c3ccc(OCC(=O)N4CCN(c5ccccn5)CC4)cc3)n[nH]c1-2)NN1CCOCC1 [Compound A81]
HCT-116 cells [1]; [6]
  IC50: < 100 nM

## O=C(Nc1cccc2c1C(=O)c1c(-c3ccc(CN4CCN(c5ccccn5)CC4)cc3)n[nH]c1-2)NN1CCOCC1 [Compound A82]
HCT-116 cells [1]; [6]
  IC50: < 100 nM

## O=C(Nc1cccc2c1C(=O)c1c(-c3ccc(CNC(CO)CO)cc3)n[nH]c1-2)NN1CCOCC1 [Compound B1]
HCT-116 cells [1]; [6]
  IC50: < 1000 nM

## O=C(Nc1cccc2c1C(=O)c1c(-c3ccc(CN(CCO)CCO)cc3)n[nH]c1-2)NN1CCOCC1 [Compound B2]
HCT-116 cells [1]; [6]
  IC50: < 100 nM

## O=C(Nc1cccc2c1C(=O)c1c(-c3ccc(CN4CCN(CCO)CC4)cc3)n[nH]c1-2)NN1CCOCC1 [Compound B3]
HCT-116 cells [1]; [6]
  IC50: < 100 nM

## O=C(Nc1cccc2c1C(=O)c1c(-c3ccc(CNCCOCCO)cc3)n[nH]c1-2)NN1CCOCC1 [Compound B4]
HCT-116 cells [1]; [6]
  IC50: < 100 nM

## O=C(Nc1cccc2c1C(=O)c1c(-c3ccc(CN4CCC(O)CC4)cc3)n[nH]c1-2)NN1CCOCC1 [Compound B5]
HCT-116 cells [1]; [6]
  IC50: < 100 nM

## O=C(Nc1cccc2c1C(=O)c1c(-c3ccc(CN4CCC[C@H]4CO)cc3)n[nH]c1-2)NN1CCOCC1 [Compound B6]
HCT-116 cells [1]; [6]
  IC50: < 100 nM

## O=C(Nc1cccc2c1C(=O)c1c(-c3ccc(CN4CCN(c5cccc(C(F)(F)F)c5)CC4)cc3)n[nH]c1-2)NN1CCOCC1 [Compound B7]
HCT-116 cells [1]; [6]
  IC50: < 1000 nM

## O=C(Nc1cccc2c1C(=O)c1c(-c3ccc(CN4CC[C@@H](O)C4)cc3)n[nH]c1-2)NN1CCOCC1 [Compound B8]
HCT-116 cells [1]; [6]
  IC50: < 100 nM

## CCOC(=O)C1CCN(Cc2ccc(-c3n[nH]c4c3C(=O)c3c(NC(=O)NN5CCOCC5)cccc3-4)cc2)CC1 [Compound B9]
HCT-116 cells [1]; [6]
  IC50: < 100 nM

## O=C(Nc1cccc2c1C(=O)c1c(-c3ccc(CNCCO)cc3)n[nH]c1-2)NN1CCOCC1 [Compound B10]
HCT-116 cells [1]; [6]
  IC50: < 100 nM

## O=C(Nc1cccc2c1C(=O)c1c(-c3ccc(CNCC(O)CO)cc3)n[nH]c1-2)NN1CCOCC1 (stereo not drawn) [Compound B11]
HCT-116 cells [1]; [6]
  IC50: < 1000 nM

## O=C(Nc1cccc2c1C(=O)c1c(-c3ccc(CNCc4cccnc4)cc3)n[nH]c1-2)NN1CCOCC1 [Compound B12]
HCT-116 cells [1]; [6]
  IC50: < 100 nM

## O=C(Nc1cccc2c1C(=O)c1c(-c3ccc(CNCc4ccccn4)cc3)n[nH]c1-2)NN1CCOCC1 [Compound B13]
HCT-116 cells [1]; [6]
  IC50: < 10 nM

## O=C(Nc1cccc2c1C(=O)c1c-2n[nH]c1-c1ccc(CN2CCN(c3ccncc3)CC2)cc1)NN1CCOCC1 [Compound B14]
HCT-116 cells [1]; [6]
  IC50: < 10 nM

## O=C(Nc1cccc2c1C(=O)c1c-2n[nH]c1-c1ccc(CN2CCN(c3ncccn3)CC2)cc1)NN1CCOCC1 [Compound B15]
HCT-116 cells [1]; [6]
  IC50: < 10 nM

## CC(C)N1CCN(Cc2ccc(-c3[nH]nc4c3C(=O)c3c(NC(=O)NN5CCOCC5)cccc3-4)cc2)CC1 [Compound B17]
HCT-116 cells [1]; [6]
  IC50: < 10 nM

## COCCN1CCN(C(=O)COc2ccc(-c3[nH]nc4c3C(=O)c3c(NC(=O)NN5CCOCC5)cccc3-4)cc2)CC1 [Compound C1]
HCT-116 cells [1]; [6]
  IC50: < 100 nM

## O=C(Nc1cccc2c1C(=O)c1c-2n[nH]c1-c1ccc(OCC(=O)N2CCNCC2)cc1)NN1CCOCC1 [Compound C5]
HCT-116 cells [1]; [6]
  IC50: < 250 nM

## O=C(Nc1cccc2c1C(=O)c1c-2n[nH]c1-c1ccc(OCCN2CCCC2)cc1)NN1CCOCC1 [Compound I]
HCT-116 cells [1]; [7]
  IC50: < 100 nM
HCT-116 cells [1]; [8]
  IC50: < 1000 nM
[2]
  IC50: < 100 nM
[3]
  IC50: < 100 nM
[4]
  IC50: < 1000 nM
HCT-116 cells [5]; [9]
  IC50: < 100 nM
HCT-116 cells [5]; [10]
  IC50: < 100 nM

## CN1CCN(NC(=O)Nc2cccc3c2C(=O)c2c-3n[nH]c2-c2ccc(OCCN3CCC[C@H]3CO)cc2)CC1 [Compound M]
HCT-116 cells [1]; [7]
  IC50: < 100 nM
HCT-116 cells [1]; [8]
  IC50: < 1000 nM
[2]
  IC50: < 100 nM
HCT-116 cells [5]; [9]
  IC50: < 100 nM

## CN1CCN(NC(=O)Nc2cccc3c2C(=O)c2c-3n[nH]c2-c2ccc(OCCN3CCCC3)cc2)CC1 [F]
HCT-116 cells [1]; [7]
  IC50: < 100 nM
HCT-116 cells [1]; [8]
  IC50: < 100 nM
[2]
  IC50: < 100 nM
[3]
  IC50: < 100 nM
[4]
  IC50: < 1000 nM
HCT-116 cells [5]; [9]
  IC50: < 1000 nM

## CCCN(CCOc1ccc(-c2[nH]nc3c2C(=O)c2c(NC(=O)NN4CCOCC4)cccc2-3)cc1)CC1CC1 [G]
HCT-116 cells [1]; [7]
  IC50: < 100 nM
HCT-116 cells [1]; [8]
  IC50: < 1000 nM
[2]
  IC50: < 100 nM
[3]
  IC50: < 100 nM
[4]
  IC50: < 1000 nM
HCT-116 cells [5]; [9]
  IC50: < 100 nM
HCT-116 cells [5]; [10]
  IC50: < 100 nM

## O=C(Nc1cccc2c1C(=O)c1c-2n[nH]c1-c1ccc(OP(=O)(O)O)cc1)NN1CCOCC1 [J]
HCT-116 cells [1]; HCT-116, Calcein AM, 72 h, read-out: HCT-116 IC50 Viability
  IC50: < 1000 nM
[2]
  IC50: < 100 nM

## CN1CCN(NC(=O)Nc2cccc3c2C(=O)c2c-3n[nH]c2-c2ccc(OCCN(CCO)CCO)cc2)CC1 [N]
HCT-116 cells [1]; [7]
  IC50: < 1000 nM
HCT-116 cells [1]; [8]
  IC50: < 1000 nM
[2]
  IC50: > 100 nM

## CN1CCN(NC(=O)Nc2cccc3c2C(=O)c2c-3n[nH]c2-c2ccc(OCCN3CC[C@H](O)C3)cc2)CC1 [O]
HCT-116 cells [1]; [7]
  IC50: < 100 nM
HCT-116 cells [1]; [8]
  IC50: < 1000 nM
[2]
  IC50: < 100 nM
HCT-116 cells [5]; [9]
  IC50: < 10 nM

## Cc1cc(-c2[nH]nc3c2C(=O)c2c(NC(=O)NN4CCN(C)CC4)cccc2-3)ccc1OCCN1CCCC1 [P]
HCT-116 cells [1]; [7]
  IC50: < 10 nM
[2]
  IC50: < 100 nM
HCT-116 cells [5]; [9]
  IC50: < 100 nM

Source: patent publication US20080146555A1, “Uses of Kinase Inhibitors and Compositions Thereof” (GPC Biotech, Inc, priority 2004, published 2008)
